Test results reported in ChEMBL document CHEMBL1201862, “PubChem BioAssay data set” (2004).
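Following 48 hours of exposure in 96-well plates, responses at five concentrations were used to interpolate endpoints linearly. At the GI50, growth is halved.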 Calls of active or inactive are those of the source. Cut-off read from the data, not from the text of the source: active = GI50 up to about 1.1 µM and inactive = higher.

Assays:
Test in all cases: DTP human tumour cell line panel, 48 h
CCRF-CEM = system: CCRF-CEM
LOX IMVI = system: LOX IMVI
RXF 393 = system: RXF 393
BT-549 = system: BT-549
MDA-MB-231 = system: MDA-MB-231
786-0 = system: 786-0
U-251 = system: U-251
CAKI-1 = system: CAKI-1
DU-145 = system: DU-145
SR = system: SR
KM12 = system: KM12
Malme-3M = system: Malme-3M
PC-3 = system: PC-3
UACC-62 = system: UACC-62
MOLT-4 = system: MOLT-4
HCT-15 = system: HCT-15
SN12C = system: SN12C
NCI-H460 = system: NCI-H460
A549 = system: A549
UACC-257 = system: UACC-257
SF-295 = system: SF-295
NCI-H522 = system: NCI-H522
NCI-H226 = system: NCI-H226
EKVX = system: EKVX
SK-MEL-5 = system: SK-MEL-5
SNB-75 = system: SNB-75
OVCAR-3 = system: OVCAR-3
SNB-19 = system: SNB-19
NCI-H23 = system: NCI-H23
SK-MEL-2 = system: SK-MEL-2
HCT-116 = system: HCT-116
SK-OV-3 = system: SK-OV-3
HCC 2998 = system: HCC 2998
T47D = system: T47D
UO-31 = system: UO-31
SF-268 = system: SF-268
TK-10 = system: TK-10
MDA-N = system: MDA-N
A498 = system: A498
SW-620 = system: SW-620
ACHN = system: ACHN
OVCAR-5 = system: OVCAR-5
OVCAR-8 = system: OVCAR-8
HOP-92 = system: HOP-92
MCF7 = system: MCF7
M14 = system: M14
NCI/ADR-RES = system: NCI/ADR-RES
HL-60 = system: HL-60
OVCAR-4 = system: OVCAR-4
COLO 205 = system: COLO 205
MDA-MB-435 = system: MDA-MB-435
IGROV-1 = system: IGROV-1
Hs-578T = system: Hs-578T
HOP-62 = system: HOP-62
HT-29 = system: HT-29
SF-539 = system: SF-539
SK-MEL-28 = system: SK-MEL-28
K562 = system: K562
RPMI-8226 = system: RPMI-8226

With `CCCS(=O)(=O)Nc1ccc(Nc2c3ccccc3nc3ccccc23)c(OC)c1` as the molecule, how does the GI50 (CCRF-CEM) read?
The GI50 was 0.0475 µM (active).

What about the GI50 (LOX IMVI) of the same molecule?
The GI50 was 0.315 µM (active).

And the GI50 (RXF 393)?
The GI50 was 5.19 µM (inactive).

And the GI50 (BT-549)?
The GI50 was 2.37 µM (inactive).

What about the GI50 (MDA-MB-231) of the same molecule?
The GI50 was 3.32 µM (inactive).

What about the GI50 (786-0) of the same molecule?
The GI50 was 0.807 µM (active).

What about the GI50 (U-251) of the same molecule?
The GI50 was 0.641 µM (active).

What about the GI50 (CAKI-1) of the same molecule?
Its GI50 is 0.4 µM (active).

And the GI50 (DU-145)?
Its GI50 is 0.271 µM (active).

And the GI50 (SR)?
The GI50 was 0.0236 µM (active).

And the GI50 (KM12)?
Its GI50 is 1.92 µM (inactive).

What about the GI50 (Malme-3M) of the same molecule?
The GI50 was 1.04 µM (active).

What about the GI50 (PC-3) of the same molecule?
The GI50 was 3.88 µM (inactive).

What about the GI50 (UACC-62) of the same molecule?
Its GI50 is 0.695 µM (active).

What about the GI50 (MOLT-4) of the same molecule?
Its GI50 is 0.0211 µM (active).

What about the GI50 (HCT-15) of the same molecule?
Its GI50 is 1.35 µM.

What about the GI50 (SN12C) of the same molecule?
Its GI50 is 0.127 µM (active).

And the GI50 (NCI-H460)?
The GI50 was 0.0362 µM (active).

What about the GI50 (A549) of the same molecule?
The GI50 was 0.43 µM (active).

And the GI50 (UACC-257)?
Its GI50 is 5.53 µM (inactive).

What about the GI50 (SF-295) of the same molecule?
Its GI50 is 0.429 µM (active).

What about the GI50 (NCI-H522) of the same molecule?
The GI50 was 0.38 µM (active).

And the GI50 (NCI-H226)?
Its GI50 is 1.46 µM (inactive).

What about the GI50 (EKVX) of the same molecule?
Its GI50 is 12.7 µM (inactive).

What about the GI50 (SK-MEL-5) of the same molecule?
The GI50 was 2 µM (inactive).

What about the GI50 (SNB-75) of the same molecule?
Its GI50 is 1.04 µM (active).

What about the GI50 (OVCAR-3) of the same molecule?
Its GI50 is 2.3 µM (inactive).

What about the GI50 (SNB-19) of the same molecule?
The GI50 was 1.08 µM (active).

What about the GI50 (NCI-H23) of the same molecule?
Its GI50 is 0.421 µM (active).

What about the GI50 (SK-MEL-2) of the same molecule?
The GI50 was 2.86 µM (inactive).

And the GI50 (HCT-116)?
The GI50 was 0.929 µM (active).

What about the GI50 (SK-OV-3) of the same molecule?
The GI50 was 2.08 µM (inactive).

And the GI50 (HCC 2998)?
The GI50 was 2.1 µM (inactive).

And the GI50 (T47D)?
Its GI50 is 0.902 µM (active).

And the GI50 (UO-31)?
The GI50 was 1.08 µM (active).

And the GI50 (SF-268)?
The GI50 was 0.853 µM (active).

And the GI50 (TK-10)?
Its GI50 is 3.78 µM (inactive).

What about the GI50 (MDA-N) of the same molecule?
The GI50 was 4.16 µM (inactive).

And the GI50 (A498)?
The GI50 was 0.904 µM (active).

What about the GI50 (SW-620) of the same molecule?
The GI50 was 2.08 µM (inactive).

What about the GI50 (ACHN) of the same molecule?
Its GI50 is 0.362 µM (active).

And the GI50 (OVCAR-5)?
Its GI50 is 8.63 µM (inactive).

And the GI50 (OVCAR-8)?
The GI50 was 1.2 µM (inactive).

What about the GI50 (HOP-92) of the same molecule?
Its GI50 is 1.73 µM (inactive).

What about the GI50 (MCF7) of the same molecule?
The GI50 was 0.365 µM (active).

What about the GI50 (M14) of the same molecule?
Its GI50 is 0.467 µM (active).

And the GI50 (NCI/ADR-RES)?
The GI50 was 3.95 µM (inactive).

What about the GI50 (HL-60) of the same molecule?
Its GI50 is 0.126 µM (active).

What about the GI50 (OVCAR-4) of the same molecule?
Its GI50 is 7.62 µM (inactive).

What about the GI50 (COLO 205) of the same molecule?
Its GI50 is 2.16 µM (inactive).

What about the GI50 (MDA-MB-435) of the same molecule?
Its GI50 is 5.28 µM (inactive).

And the GI50 (IGROV-1)?
Its GI50 is 1.31 µM (inactive).

And the GI50 (Hs-578T)?
Its GI50 is 3.16 µM (inactive).

What about the GI50 (HOP-62) of the same molecule?
Its GI50 is 0.561 µM (active).

What about the GI50 (HT-29) of the same molecule?
The GI50 was 1.75 µM (inactive).

What about the GI50 (SF-539) of the same molecule?
The GI50 was 1.17 µM (inactive).

How did the GI50 (CCRF-CEM) turn out when `CC(C)(C)C1CCC2c3c([nH]c4ccccc34)C3C(=O)N(c4ccc([N+](=O)[O-])cc4)C(=O)C3C2C1` (stereo not drawn) was run?
Its GI50 is 8.51 µM (inactive).

And the GI50 (LOX IMVI)?
The GI50 was 8.34 µM (inactive).

And the GI50 (RXF 393)?
The GI50 was 10.4 µM (inactive).

What about the GI50 (BT-549) of the same molecule?
The GI50 was 16.2 µM (inactive).

And the GI50 (MDA-MB-231)?
Its GI50 is 17.8 µM (inactive).

What about the GI50 (786-0) of the same molecule?
Its GI50 is 5.11 µM (inactive).

What about the GI50 (U-251) of the same molecule?
The GI50 was 15.6 µM (inactive).

What about the GI50 (DU-145) of the same molecule?
Its GI50 is 26.7 µM (inactive).

What about the GI50 (SR) of the same molecule?
Its GI50 is 3.27 µM (inactive).

What about the GI50 (KM12) of the same molecule?
The GI50 was 1.77 µM (inactive).

What about the GI50 (Malme-3M) of the same molecule?
Its GI50 is 20.5 µM (inactive).

And the GI50 (PC-3)?
Its GI50 is 26.9 µM (inactive).

And the GI50 (UACC-62)?
The GI50 was 3.12 µM (inactive).

And the GI50 (MOLT-4)?
Its GI50 is 5.28 µM (inactive).

What about the GI50 (HCT-15) of the same molecule?
Its GI50 is 18.1 µM.

And the GI50 (SN12C)?
Its GI50 is 4.86 µM (inactive).

And the GI50 (NCI-H460)?
Its GI50 is 13.6 µM (inactive).

And the GI50 (A549)?
Its GI50 is 10.8 µM (inactive).

What about the GI50 (UACC-257) of the same molecule?
The GI50 was 29.1 µM (inactive).

What about the GI50 (SF-295) of the same molecule?
The GI50 was 27.2 µM (inactive).

What about the GI50 (NCI-H522) of the same molecule?
The GI50 was 12.5 µM (inactive).

What about the GI50 (NCI-H226) of the same molecule?
The GI50 was 13.9 µM (inactive).

What about the GI50 (EKVX) of the same molecule?
The GI50 was 25.3 µM (inactive).

And the GI50 (SK-MEL-5)?
The GI50 was 12.2 µM (inactive).

And the GI50 (SNB-75)?
The GI50 was 16.9 µM (inactive).

What about the GI50 (OVCAR-3) of the same molecule?
Its GI50 is 10.7 µM (inactive).

What about the GI50 (SNB-19) of the same molecule?
The GI50 was 22 µM (inactive).

What about the GI50 (NCI-H23) of the same molecule?
The GI50 was 10.3 µM (inactive).

What about the GI50 (SK-MEL-2) of the same molecule?
Its GI50 is 11.8 µM (inactive).

And the GI50 (SK-MEL-28)?
The GI50 was 96.6 µM (inactive).

And the GI50 (HCT-116)?
The GI50 was 8.09 µM (inactive).

And the GI50 (SK-OV-3)?
Its GI50 is 35.1 µM (inactive).

What about the GI50 (K562) of the same molecule?
Its GI50 is 5.96 µM (inactive).

What about the GI50 (HCC 2998) of the same molecule?
The GI50 was 9.14 µM (inactive).

What about the GI50 (RPMI-8226) of the same molecule?
Its GI50 is 27 µM (inactive).

And the GI50 (T47D)?
Its GI50 is 13.9 µM (inactive).

And the GI50 (SF-268)?
Its GI50 is 7.36 µM (inactive).

And the GI50 (TK-10)?
The GI50 was 21.3 µM (inactive).

What about the GI50 (MDA-N) of the same molecule?
Its GI50 is 28.5 µM (inactive).

And the GI50 (A498)?
The GI50 was 24.3 µM (inactive).

What about the GI50 (SW-620) of the same molecule?
The GI50 was 21 µM (inactive).

What about the GI50 (ACHN) of the same molecule?
The GI50 was 36.6 µM (inactive).

What about the GI50 (OVCAR-5) of the same molecule?
Its GI50 is 25.2 µM (inactive).

And the GI50 (OVCAR-8)?
Its GI50 is 19 µM (inactive).

And the GI50 (HOP-92)?
Its GI50 is 2.7 µM (inactive).

And the GI50 (MCF7)?
The GI50 was 2.79 µM (inactive).

What about the GI50 (M14) of the same molecule?
The GI50 was 23.9 µM (inactive).

And the GI50 (NCI/ADR-RES)?
Its GI50 is 14.9 µM (inactive).

And the GI50 (HL-60)?
The GI50 was 6.11 µM (inactive).

What about the GI50 (OVCAR-4) of the same molecule?
Its GI50 is 5.62 µM (inactive).

And the GI50 (COLO 205)?
Its GI50 is 8.71 µM (inactive).

What about the GI50 (MDA-MB-435) of the same molecule?
The GI50 was 28.1 µM (inactive).

And the GI50 (IGROV-1)?
Its GI50 is 11.5 µM (inactive).

And the GI50 (Hs-578T)?
Its GI50 is 11.4 µM (inactive).

And the GI50 (HOP-62)?
The GI50 was 16.4 µM (inactive).

And the GI50 (HT-29)?
The GI50 was 3.89 µM (inactive).

And the GI50 (SF-539)?
The GI50 was 20.7 µM (inactive).
